# Laboratory results as given in PubChem BioAssay (NCI).
#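 Briefly, cells in 96-well plates were exposed to five compound concentrations for 48 h, and endpoints were estimated by linear interpolation. Here, GI50 denotes the concentration required for 50% inhibition of growth. Definition used: TGI = concentration required for complete inhibition of growth.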
# What was measured:
# Assay in all cases: DTP human tumour cell line panel, 48 h
# A498 renal = tested on: A498 renal
# CAKI-1 renal = tested on: CAKI-1 renal
# COLO 205 colon = tested on: COLO 205 colon
# LOX IMVI melanoma = tested on: LOX IMVI melanoma
# NCI-H226 lung = tested on: NCI-H226 lung
# OVCAR-3 ovarian = tested on: OVCAR-3 ovarian
# PC-3 prostate = tested on: PC-3 prostate
# SK-MEL-5 melanoma = tested on: SK-MEL-5 melanoma
# SNB-19 CNS = tested on: SNB-19 CNS
# U251 CNS = tested on: U251 CNS
Compound,GI50 (A498 renal),TGI (A498 renal),GI50 (CAKI-1 renal),TGI (CAKI-1 renal),GI50 (COLO 205 colon),TGI (COLO 205 colon),GI50 (LOX IMVI melanoma),TGI (LOX IMVI melanoma),GI50 (NCI-H226 lung),TGI (NCI-H226 lung),GI50 (OVCAR-3 ovarian),TGI (OVCAR-3 ovarian),GI50 (PC-3 prostate),TGI (PC-3 prostate),GI50 (SK-MEL-5 melanoma),TGI (SK-MEL-5 melanoma),GI50 (SNB-19 CNS),TGI (SNB-19 CNS),GI50 (U251 CNS),TGI (U251 CNS)
CNC(=O)c1cccc(C#Cc2cncnc2Nc2ccc(OCc3cccc(F)c3)c(Cl)c2)c1,1.84 µM,10.9 µM,2.09 µM,> 25 µM,7.5 µM,> 18.4 µM,5.77 µM,> 17 µM,5.8 µM,> 17.9 µM,3.82 µM,8.03 µM,7.49 µM,> 22.8 µM,5.8 µM,> 20.7 µM,6.9 µM,> 25 µM,4.47 µM,10.2 µM
C=CC(=O)Nc1cccc(Oc2nc(Nc3ccc(N4CCN(C)CC4)cc3OC)ncc2Cl)c1,1.11 µM,3.49 µM,0.985 µM,2.44 µM,2.28 µM,5.07 µM,1.58 µM,2.99 µM,1.81 µM,5.66 µM,1.7 µM,4.44 µM,2.19 µM,7.03 µM,1.89 µM,3.92 µM,3.63 µM,16.7 µM,1.49 µM,3.03 µM
CC(C)C(=O)c1c(C(F)(F)F)n([O-])c2ccccc2[n+]1=O,7.34 µM,16.2 µM,0.689 µM,2.1 µM,1.31 µM,2.97 µM,1.85 µM,,1.86 µM,5.27 µM,0.493 µM,1.24 µM,0.688 µM,3.03 µM,1.63 µM,3.03 µM,3.51 µM,25.8 µM,2.84 µM,> 33.2 µM
Cc1ccccc1C(C(=O)NC1CCCCC1)N(C(=O)CNc1ncccc1F)c1cccc(F)c1 (stereo not drawn),49.6 µM,> 100 µM,> 53.1 µM,> 100 µM,> 100 µM,> 100 µM,> 100 µM,> 100 µM,38.3 µM,> 100 µM,> 100 µM,> 100 µM,> 100 µM,> 100 µM,> 100 µM,> 100 µM,17.2 µM,> 87.3 µM,27.6 µM,> 100 µM
CCCN(CCC)c1ccc(C=O)c(C)c1,1.27 µM,3.28 µM,33.7 µM,> 100 µM,29.1 µM,> 100 µM,65 µM,> 100 µM,11.3 µM,> 71.5 µM,35.4 µM,> 100 µM,32.7 µM,> 100 µM,21.2 µM,> 61.9 µM,60.9 µM,> 100 µM,38.5 µM,> 100 µM
Cc1sc2c(c1C)C(c1ccc(Cl)cc1)=N[C@@H](CC(=O)NCCCN1CCN(C)CC1)c1nnc(C)n1-2,0.271 µM,7.78 µM,0.684 µM,> 100 µM,0.0995 µM,> 100 µM,0.362 µM,> 69.9 µM,,> 100 µM,1.33 µM,> 100 µM,1.05 µM,> 100 µM,6.36 µM,> 100 µM,0.987 µM,> 100 µM,8.88 µM,> 100 µM
